Patent publication US9642831B2, “Substituted chromanes and method of use” (AbbVie S.á.r.l., priority 2014, dated 2017)

Target: F508delCFTR (Homo sapiens, UniProt P13569, DEL508-508)
Assay: Cell Surface Expression-Horse Radish Peroxidase (CSE-HRP) assay
Format: cell-based
Parameters: expressed in transfected cells; host or cells: CFBE41o- human lung derived epithelial cell line, doxycycline-inducible
Settings: CFBE4lo-F508delCFTR-HRP cells; for EC50: 18-24 hours at 33° C., 8-point curve, highest concentration 20 μM, luminescence readout; for Emax: maximum % activity at any tested concentration, normalized to on-plate positive control (3 μM Example 1)
From the text: Cell Surface Expression-Horse Radish Peroxidase (CSE-HRP) Assay:
A cellular assay for measuring the F508delCFTR cell surface expression after correction with test compounds was developed in human lung derived epithelial cell line (CFBE4lo-) (Veit G et al, (2012) Mol Biol Cell. 23(21): 4188-4202). This was achieved by expressing the F508delCFTR mutation along with a horseradish peroxidase (HRP) in the fourth exofacial loop and then measuring the HRP activity using luminescence readout from these cells, CFBE4lo-F508delCFTR-HRP, that were incubated overnight with the test corrector compounds. Briefly, for this primary assay, the CFBE4lo-F508delCFTR-HRP cells were plated in 384-well plates (Greiner Bio-one; Cat 781080) at 4,000 cells/well along with 0.5 μg/mL doxycycline to induce the F508delCFTR-HRP expression and further incubated at 37° C., 5% CO2 for 72 hours. The test compounds were then added at the required concentrations and further incubated for 18-24 hours at 33° C. The highest concentration tested was 20 μM with an 8-point concentration response curve using a 3-fold dilution. Three replicate plates were run to determine one EC50. All plates contained negative controls (dimethyl sulfoxide, DMSO) and positive controls (3 μM of 3-[(2R,4R)-4-({[1-(2,2-difluoro-1,3-benzodioxol-5-yl)cyclopropyl]carbonyl}amino)-7-methoxy-3,4-dihydro-2H-chromen-2-yl]benzoic acid) as well as on-plate concentration response of the positive control. Post incubation, the plates were washed 5× times with Dulbecco's phosphate buffered saline (DPBS), followed by the addition of the HRP substrate, luminol (50 μL), and measuring the HRP activity using luminescence readout on EnVision® Multilabel Plate Reader (Perkin Elmer; product number 2104-0010). The raw counts from the experiment are analyzed using Accelrys® Assay Explorer v3.3.
Z′ greater than 0.5 was used as passing quality control criteria for the plates.
The Z′ is defined as: 1−[3*SDPositive Control+3*SDNegative Control/Absolute(MeanPositive Control−MeanNegative Control)] wherein “SD” is standard deviation.
The % activity measured at each of the 8 test concentrations of the test compound was normalized to the on-plate positive control using the following formula: % activity=[(test compound response−DMSO response)/(positive control response−DMSO response)]*100
The maximum % activity achieved for the test compound at any tested concentration is presented in Table 1 along with the EC50 calculated using the following general sigmoidal curve with variable Hill slope equation (described as Model 42 in the Accelrys® Assay Explorer v3.3 software): y=(a−d)/(1+(x/c)^b)+d
General sigmoidal curve with concentration, response, top, bottom, EC50 and Hill slope.
This model describes a sigmoidal curve with an adjustable baseline, a. The equation can be used to fit curves where response is either increasing or decreasing with respect to the independent variable, “x”.
“x” is a concentration of drug under test.
“a” is the maximum response, and “d” is the minimum response
“c” is the inflection point (EC50) for the curve. That is, “y” is halfway between the lower and upper asymptotes when x=c.
“b” is the slope-factor or Hill coefficient. The sign of b is positive when the response increases with increasing dose and is negative when the response decreases with increasing dose (inhibition).

Sequence of F508delCFTR (P13569 with tags, fused parts or gaps DEL508-508): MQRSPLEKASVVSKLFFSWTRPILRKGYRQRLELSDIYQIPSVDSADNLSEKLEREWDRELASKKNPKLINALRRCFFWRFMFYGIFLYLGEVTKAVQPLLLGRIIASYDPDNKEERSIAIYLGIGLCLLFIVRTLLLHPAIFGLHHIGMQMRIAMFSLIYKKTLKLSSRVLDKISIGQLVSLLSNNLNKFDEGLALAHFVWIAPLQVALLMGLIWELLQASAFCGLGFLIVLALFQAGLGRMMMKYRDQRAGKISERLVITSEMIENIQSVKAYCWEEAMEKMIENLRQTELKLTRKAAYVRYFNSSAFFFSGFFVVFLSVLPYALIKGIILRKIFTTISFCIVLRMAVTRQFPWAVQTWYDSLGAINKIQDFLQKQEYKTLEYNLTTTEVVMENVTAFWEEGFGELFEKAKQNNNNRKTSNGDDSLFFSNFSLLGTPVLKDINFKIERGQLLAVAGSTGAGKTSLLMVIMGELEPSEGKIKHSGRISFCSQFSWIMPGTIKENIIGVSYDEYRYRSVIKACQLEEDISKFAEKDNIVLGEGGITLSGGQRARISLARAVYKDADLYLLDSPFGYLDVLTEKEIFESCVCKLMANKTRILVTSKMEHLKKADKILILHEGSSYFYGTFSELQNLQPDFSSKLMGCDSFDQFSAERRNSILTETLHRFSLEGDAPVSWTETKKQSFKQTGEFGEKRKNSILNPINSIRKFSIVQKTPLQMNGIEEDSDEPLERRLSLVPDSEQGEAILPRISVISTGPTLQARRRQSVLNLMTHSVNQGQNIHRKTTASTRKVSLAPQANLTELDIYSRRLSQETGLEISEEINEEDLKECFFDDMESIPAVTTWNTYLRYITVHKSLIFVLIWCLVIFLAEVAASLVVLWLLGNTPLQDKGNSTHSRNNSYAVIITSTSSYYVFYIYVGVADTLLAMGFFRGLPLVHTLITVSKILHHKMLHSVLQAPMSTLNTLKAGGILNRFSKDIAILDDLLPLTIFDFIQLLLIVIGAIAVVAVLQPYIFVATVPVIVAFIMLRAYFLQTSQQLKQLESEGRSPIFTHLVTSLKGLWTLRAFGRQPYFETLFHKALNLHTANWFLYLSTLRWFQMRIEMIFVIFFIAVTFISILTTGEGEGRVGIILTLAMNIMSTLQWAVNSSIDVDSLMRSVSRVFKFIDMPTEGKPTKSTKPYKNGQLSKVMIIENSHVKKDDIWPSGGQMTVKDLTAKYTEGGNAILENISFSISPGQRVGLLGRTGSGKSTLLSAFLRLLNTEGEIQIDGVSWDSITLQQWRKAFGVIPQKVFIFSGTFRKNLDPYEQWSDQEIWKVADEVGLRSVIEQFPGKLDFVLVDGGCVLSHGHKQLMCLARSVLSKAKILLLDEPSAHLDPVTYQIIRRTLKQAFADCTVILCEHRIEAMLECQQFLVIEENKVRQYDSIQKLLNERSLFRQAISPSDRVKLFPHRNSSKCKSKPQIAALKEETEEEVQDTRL

SMILES	EC50	Emax
COc1ccc2c(c1)O[C@@H](C(=O)NC1c3ccccc3CC1O)C[C@H]2NC(=O)C1(c2ccc3c(c2)OC(F)(F)O3)CC1 (mixture of isomers) [Example 181, rac-(2R,4R)-4-({[1-(2,2-difluoro-1,3-benzodioxol-5-yl)cyclopropyl]carbonyl}amino)-N-(2-hydroxy-2,3-dihydro-1H-inden-1-yl)-7-methoxy-3,4-dihydro-2H-chromene-2-carboxamide]	1.59 µM	57%
O=C(O)c1ccc([C@H]2C[C@@H](NC(=O)C3(c4cc5c(cc4Br)OC(F)(F)O5)CC3)c3ccc(OC(F)F)cc3O2)cc1 [Example 202, 4-[(2R,4R)-4-({[1-(6-bromo-2,2-difluoro-1,3-benzodioxol-5-yl)cyclopropyl]carbonyl}amino)-7-(difluoromethoxy)-3,4-dihydro-2H-chromen-2-yl]benzoic acid]	0.01 µM	142%
CC(=O)N1CCC2(CC1)CC(NC(=O)C1(c3ccc4c(c3)OC(F)(F)O4)CC1)c1ccc(F)cc1O2 (centres unmarked) [Example 102, N-(1′-acetyl-7-fluoro-3,4-dihydrospiro[chromene-2,4′-piperidin]-4-yl)-1-(2,2-difluoro-1,3-benzodioxol-5-yl)cyclopropanecarboxamide]	4.86 µM	89%
COc1ccc2c(c1)O[C@@H](C(=O)N1CCCOCC1)C[C@@H]2NC(=O)C1(c2ccc3c(c2)OC(F)(F)O3)CC1 (racemic) [Example 194, rac-1-(2,2-difluoro-1,3-benzodioxol-5-yl)-N-[(2R,4S)-7-methoxy-2-(1,4-oxazepan-4-ylcarbonyl)-3,4-dihydro-2H-chromen-4-yl]cyclopropanecarboxamide]	0.88 µM	68%
CCC1(CC)C[C@@H](NC(=O)C2(c3ccc4c(c3)OC(F)(F)O4)CC2)c2ccccc2O1 [Example 74, N-[(4R)-2,2-diethyl-3,4-dihydro-2H-chromen-4-yl]-1-(2,2-difluoro-1,3-benzodioxol-5-yl)cyclopropanecarboxamide]	5.53 µM	98%
COc1ccc2c(c1)OCCC2NC(=O)C1(c2ccc3c(c2)OC(F)(F)O3)CC1 (centres unmarked) [Example 59, 1-(2,2-difluoro-1,3-benzodioxol-5-yl)-N-(7-methoxy-3,4-dihydro-2H-chromen-4-yl)cyclopropanecarboxamide]	3.66 µM	101%
COC(=O)c1cccc([C@H]2C[C@@H](NC(=O)C3(c4ccc5c(c4)OC(F)(F)O5)CC3)c3cc(OC)ccc3O2)c1 [Example 21, methyl 3-[(2R,4R)-4-({[1-(2,2-difluoro-1,3-benzodioxol-5-yl)cyclopropyl]carbonyl}amino)-6-methoxy-3,4-dihydro-2H-chromen-2-yl]benzoate]	0.8 µM	142%
C[C@@]1(C(F)F)C[C@@H](NC(=O)C2(c3ccc4c(c3)OC(F)(F)O4)CC2)c2ccc(Cl)cc2O1 [Example 83, N-[(2S,4R)-7-chloro-2-(difluoromethyl)-2-methyl-3,4-dihydro-2H-chromen-4-yl]-1-(2,2-difluoro-1,3-benzodioxol-5-yl)cyclopropanecarboxamide]	2.72 µM	106%
CCOC(=O)c1csc([C@@H]2C[C@H](NC(=O)C3(c4ccc5c(c4)OC(F)(F)O5)CC3)c3ccccc3O2)n1 (stereo in doubt) [Example 140, ethyl rel-2-[(2S,4S)-4-({[1-(2,2-difluoro-1,3-benzodioxol-5-yl)cyclopropyl]carbonyl}amino)-3,4-dihydro-2H-chromen-2-yl]-1,3-thiazole-4-carboxylate]	2.28 µM	53%
COC(=O)c1ccc([C@H]2C[C@@H](NC(=O)C3(c4ccc5c(c4)OC(F)(F)O5)CC3)c3ccc(OC)cc3O2)c(F)c1 [Example 138, methyl 4-[(2R,4R)-4-({[1-(2,2-difluoro-1,3-benzodioxol-5-yl)cyclopropyl]carbonyl}amino)-7-methoxy-3,4-dihydro-2H-chromen-2-yl]-3-fluorobenzoate]	0.05 µM	119%
O=C(O)c1ccc([C@H]2C[C@@H](NC(=O)C3(c4ccc5c(c4)OC(F)(F)O5)CC3)c3ccccc3O2)nc1 (racemic) [Example 154, rac-6-[(2R,4R)-4-({[1-(2,2-difluoro-1,3-benzodioxol-5-yl)cyclopropyl]carbonyl}amino)-3,4-dihydro-2H-chromen-2-yl]pyridine-3-carboxylic acid]	0.67 µM	106%
CCOC(=O)c1cccc([C@H]2C[C@@H](NC(=O)C3(c4ccc5c(c4)OC(F)(F)O5)CC3)c3ccncc3O2)c1 (stereo in doubt) [Example 25, ethyl rel-3-[(2R,4R)-4-({[1-(2,2-difluoro-1,3-benzodioxol-5-yl)cyclopropyl]carbonyl}amino)-3,4-dihydro-2H-pyrano[2,3-c]pyridin-2-yl]benzoate]	3.91 µM	41%
COC(=O)c1ccc([C@H]2C[C@@H](NC(=O)C3(c4ccc5c(c4)OC(F)(F)O5)CC3)c3ccc(OC)cc3O2)nc1 (stereo in doubt) [Example 162, methyl rel-6-[(2R,4R)-4-({[1-(2,2-difluoro-1,3-benzodioxol-5-yl)cyclopropyl]carbonyl}amino)-7-methoxy-3,4-dihydro-2H-chromen-2-yl]pyridine-3-carboxylate]	0.17 µM	105%
COc1ccc2c(c1)O[C@@H](C(=O)NC(C)(C)CO)C[C@@H]2NC(=O)C1(c2ccc3c(c2)OC(F)(F)O3)CC1 (racemic) [Example 189, rac-(2R,4S)-4-({[1-(2,2-difluoro-1,3-benzodioxol-5-yl)cyclopropyl]carbonyl}amino)-N-(1-hydroxy-2-methylpropan-2-yl)-7-methoxy-3,4-dihydro-2H-chromene-2-carboxamide]	3.83 µM	58%
Cc1ccc2c(c1)O[C@@H](c1cccc(C(=O)NC3CCC(C)(C(=O)O)C3)c1)C[C@H]2NC(=O)C1(c2ccc3c(c2)OC(F)(F)O3)CC1 (stereo partly drawn) [Example 43, 3-({3-[(2R,4R)-4-({[1-(2,2-difluoro-1,3-benzodioxol-5-yl)cyclopropyl]carbonyl}amino)-7-methyl-3,4-dihydro-2H-chromen-2-yl]benzoyl}amino)-1-methylcyclopentanecarboxylic acid]	0.85 µM	78%
O=C(N[C@@H]1CC(CF)(CF)Oc2cc(Cl)ccc21)C1(c2ccc3c(c2)OC(F)(F)O3)CC1 [Example 87, N-[(4R)-7-chloro-2,2-bis(fluoromethyl)-3,4-dihydro-2H-chromen-4-yl]-1-(2,2-difluoro-1,3-benzodioxol-5-yl)cyclopropanecarboxamide]	4.63 µM	146%
O=C(NC1CC(c2ccc(F)cc2)Oc2ccccc21)C1(c2ccc3c(c2)OC(F)(F)O3)CC1 (centres unmarked) [Example 71, 1-(2,2-difluoro-1,3-benzodioxol-5-yl)-N-[2-(4-fluorophenyl)-3,4-dihydro-2H-chromen-4-yl]cyclopropanecarboxamide]	2.84 µM	91%
COC(=O)c1cccc([C@H]2C[C@@H](NC(=O)C3(c4ccc5c(c4)OC(F)(F)O5)CC3)c3ccc(OC)cc3O2)c1 [Example 6, methyl 3-[(2R,4R)-4-({[1-(2,2-difluoro-1,3-benzodioxol-5-yl)cyclopropyl]carbonyl}amino)-7-methoxy-3,4-dihydro-2H-chromen-2-yl]benzoate]	0.38 µM	120%
Cc1ccc2c(c1)O[C@@H](c1cccc(C(=O)N3CC[C@@H](O)C3)c1)C[C@H]2NC(=O)C1(c2ccc3c(c2)OC(F)(F)O3)CC1 [Example 49, 1-(2,2-difluoro-1,3-benzodioxol-5-yl)-N-[(2R,4R)-2-(3-{[(3R)-3-hydroxypyrrolidin-1-yl]carbonyl}phenyl)-7-methyl-3,4-dihydro-2H-chromen-4-yl]cyclopropanecarboxamide]	0.97 µM	105%
